Assay [1] deals with hepatic lipase (HL) (Homo sapiens (Human), UniProt P11150). Nature of the assay: HL assay: hepatic lipase activity with fluorescent substrate A10070 in DMPG vesicles. Type of assay: biochemical. Summed up:
(§1)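 Vesicles prepared: A10070 dried with DMPG, resuspended in HEPES pH 8.0/NaCl/EDTA, sonicated on ice. Enzyme incubated with compound 30 min at 37° C. Reaction started with 1:10 diluted vesicles. Fluorescence (490/530 nm) followed 60 min; slope from 300–900 secs gives rate.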

Assay [2] concerns the target Endothelial lipase (EL) (Homo sapiens (Human), UniProt Q9Y5X9). Put plainly: EL assay: endothelial lipase activity with fluorescent substrate A10070 in DMPG vesicles. It is filed as biochemical. In outline: as §1

The structures appear in SMILES notation.

hepatic lipase (HL), sequence (P11150 23-499, species assumed): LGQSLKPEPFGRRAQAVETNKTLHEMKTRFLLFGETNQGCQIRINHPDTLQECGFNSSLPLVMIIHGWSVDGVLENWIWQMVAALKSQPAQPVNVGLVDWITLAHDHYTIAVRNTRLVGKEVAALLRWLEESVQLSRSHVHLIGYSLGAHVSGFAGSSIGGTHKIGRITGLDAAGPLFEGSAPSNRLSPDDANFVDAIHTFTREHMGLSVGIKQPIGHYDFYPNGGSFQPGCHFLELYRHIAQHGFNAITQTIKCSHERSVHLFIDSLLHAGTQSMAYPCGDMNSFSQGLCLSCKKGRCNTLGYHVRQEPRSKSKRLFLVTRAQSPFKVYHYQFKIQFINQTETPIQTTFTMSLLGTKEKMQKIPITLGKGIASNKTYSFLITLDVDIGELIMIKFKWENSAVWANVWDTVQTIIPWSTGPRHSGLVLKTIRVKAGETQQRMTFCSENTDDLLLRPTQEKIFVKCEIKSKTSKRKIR
Endothelial lipase (EL), sequence (Q9Y5X9 21-500): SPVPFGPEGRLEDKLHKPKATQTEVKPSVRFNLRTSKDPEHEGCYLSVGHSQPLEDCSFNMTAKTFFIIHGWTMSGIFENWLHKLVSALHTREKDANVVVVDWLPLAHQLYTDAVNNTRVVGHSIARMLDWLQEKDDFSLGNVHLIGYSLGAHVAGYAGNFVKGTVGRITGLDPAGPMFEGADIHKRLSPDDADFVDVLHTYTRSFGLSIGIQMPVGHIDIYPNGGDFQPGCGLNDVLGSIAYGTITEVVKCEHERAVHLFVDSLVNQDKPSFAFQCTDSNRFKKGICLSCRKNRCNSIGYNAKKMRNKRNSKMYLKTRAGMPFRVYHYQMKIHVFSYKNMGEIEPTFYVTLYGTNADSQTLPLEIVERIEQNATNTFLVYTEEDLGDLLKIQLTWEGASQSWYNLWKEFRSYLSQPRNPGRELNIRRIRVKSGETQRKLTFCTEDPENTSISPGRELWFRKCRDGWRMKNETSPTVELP

As for `COCCNC(=O)c1ccc(-c2ccc3nc(C(C(=O)NCCS(N)(=O)=O)S(=O)(=O)C(C)C)sc3c2)cc1` (stereo not drawn) [Example B267, N-(2-methoxyethyl)-4-{2-[(propane-2-sulfonyl)[(2-sul-famoylethyl)carbamoyl]meth-yl]-1,3-benzothiazol-6-yl}benzamide], the IC50 in assay [1] worked out at 289 nM; in assay [2], 44.5 nM.

Turning to `NS(=O)(=O)CCNC(=O)C(c1nc2ccc(-c3cccc(C(=O)N4CC[C@@H](O)C4)c3)cc2s1)S(=O)(=O)CCC(F)(F)F` (stereo partly drawn) [Example B342, 2-(6-{3-[(3R)-3-hydroxy-pyrrolidine-1-carbon-yl]phenyl}-1,3-benzothiazol-2-yl)-N-(2-sulfamoyl-ethyl)-2-(3,3,3-trifluoro-propanesulfonyl)acetamide], the results for the half-inhibitory concentration (IC50) in assay [1] and in assay [2] were 154 nM and 9.5 nM, respectively.

As for `CS(=O)(=O)C(C(=O)NCCS(N)(=O)=O)c1nc2ccc(-c3ccnc(O)c3)cc2s1` (stereo not drawn) [Example B189, 2-(methylsulfonyl)-2-(6-(2-oxo-1,2-dihydro-4-pyridinyl)-1,3-benzothiazol-2-yl)-N-(2-sulfamoylethyl)acetamide], the concentration for half-maximal inhibition (IC50) in assay [1] is 13 nM; in assay [2], less than 10 nM.

For `COCCS(=O)(=O)C(C(=O)NCCS(N)(=O)=O)c1nc2ccc(-c3ccc(NC(=O)OC)cc3)cc2s1` (stereo not drawn) [Example B71, methyl (4-(2-(1-((2-methoxyethyl)sulfonyl)-2-oxo-2-((2-sulfamoylethyl)a-mino)ethyl)-1,3-benzothiazol-6-yl)phenyl)car-bamate], the 50% inhibitory concentration (IC50) in assay [1] and in assay [2] was less than 10 nM each time.

As for `CS(=O)(=O)C(C(=O)NCCS(N)(=O)=O)c1nc2cc(-c3cnn(CCN4CCOCC4)c3)ccc2s1` (stereo not drawn) [Example B91, 2-(methylsulfonyl)-2-(5-(1-(2-(4-morpholinyl)ethyl)-1H-pyrazol-4-yl)-1,3-benzothiazol-2-yl)-N-(2-sulfamoylethyl)acetamide], the IC50 is 1800 nM in assay [1] and less than 10 nM in assay [2].

Take `COCCNC(=O)c1ccc(-c2ccc3sc(C(C(=O)NCCS(N)(=O)=O)S(C)(=O)=O)nc3c2)cc1` (stereo not drawn) [Example B93, N-(2-methoxyethyl)-4-(2-(1-(methylsulfonyl)-2-oxo-2-((2-sulfamoylethyl)a-mino)ethyl)-1,3-benzothiazol-5-yl)ben-zamide]: the IC50 in assay [1] is 7.1 nM; in assay [2], 0.5 nM.

Regarding `CS(=O)(=O)C(C(=O)NCCS(N)(=O)=O)c1nc2cc(-c3ccnc(F)c3)ccc2s1` (stereo not drawn) [Example B95, 2-[5-(2-fluoro-4-pyridinyl)-1,3-benzothiazol-2-yl]-2-(methylsulfonyl)-N-(2-sulfamoylethyl)acetamide], the IC50 was 70 nM in assay [1] and less than 10 nM in assay [2].

Consider `Cc1cc2nc(C(C(=O)NCCS(N)(=O)=O)S(C)(=O)=O)sc2cc1-c1ccc(C(=O)N2CC(C)(O)C2)cc1` (stereo not drawn) [Example B349, 2-{6-[4-(3-hydroxy-3-methylazetidine-1-carbonyl)phenyl]-5-methyl-1,3-benzothiazol-2-yl}-2-methanesulfonyl-N-(2-sulfamoylethyl)a-cetamide], for which the IC50 in assay [1] came out at 347 nM; in assay [2], 2.3 nM.

Consider `CO[C@@H]1CCN(C(=O)c2ccc(-c3ccc4nc(C(C(=O)NCCS(N)(=O)=O)S(=O)(=O)Cc5ccc(OC(F)(F)F)cc5)sc4c3)cc2)C1` (stereo partly drawn) [Example B354, 2-(6-{4-[(3R)-3-methoxy-pyrrolidine-1-carbonyl]phen-yl}-1,3-benzothiazol-2-yl)-N-(2-sulfamoyl-ethyl)-2-{[4-(trifluoro-methoxy)phenyl]methane-sulfonyl}acetamide], for which the concentration for half-maximal inhibition (IC50) came out at 553 nM in assay [1] and 3.8 nM in assay [2].

As for `CS(=O)(=O)C(C(=O)NCCS(N)(=O)=O)c1nc2ccc(-c3ccc(C(=O)NCC(F)(F)F)cc3)cc2s1` (stereo not drawn) [Example B41, 4-(2-(1-(methylsulfonyl)-2-oxo-2-((2-sulfamoylethyl)a-mino)ethyl)-1,3-benzothiazol-6-yl)-N-(2,2,2-trifluoroethyl)ben-zamide], the figures for the half-maximal inhibitory concentration (IC50) in assay [1] and in assay [2] were 17 nM and less than 10 nM, respectively.

Regarding `COc1nccc(-c2ccc3nc(C(C(=O)NCCS(N)(=O)=O)S(C)(=O)=O)sc3c2)c1F` (stereo not drawn) [Example B149, 2-(6-(3-fluoro-2-methoxy-4-pyridinyl)-1,3-benzothiazol-2-yl)-2-(methylsulfonyl)-N-(2-sulfamoylethyl)acetamide], the figures for the IC50 in assay [1] and in assay [2] were 64 nM and less than 10 nM, respectively.

For `COCCS(=O)(=O)C(C(=O)NCCS(N)(=O)=O)c1nc2c(F)cc(-c3ccccc3)cc2s1` (stereo not drawn) [Example B134, 2-(4-fluoro-6-phenyl-1,3-benzothiazol-2-yl)-2-((2-methoxyethyl)sulfonyl)-N-(2-sulfamoylethyl)a-cetamide], the concentration for half-maximal inhibition (IC50) in assay [1] was 18 nM; in assay [2], less than 10 nM.

For `NS(=O)(=O)CCNC(=O)C(c1nc2ccc(-c3cccc(C(=O)N4CC(F)(F)C4)c3)cc2s1)S(=O)(=O)CCC(F)(F)F` (stereo not drawn) [Example B334, 2-{6-[3-(3,3-difluoro-azetidine-1-carbonyl)phen-yl]-1,3-benzothiazol-2-yl}-N-(2-sulfamoyl-ethyl)-2-(3,3,3-trifluoro-propanesulfonyl)acetamide], the IC50 in assay [1] came to 60.4 nM; in assay [2], 14.2 nM.

As for `Cc1cc(-c2ccc3nc(C(C(=O)NCCS(N)(=O)=O)S(C)(=O)=O)sc3c2)cnc1F` (stereo not drawn) [Example B33, 2-(6-(6-fluoro-5-methyl-3-pyridinyl)-1,3-benzothiazol-2-yl)-2-(methylsulfonyl)-N-(2-sulfamoylethyl)acetamide], the IC50 turned out to be 22 nM in assay [1] and 14 nM in assay [2].

As to `Cc1nnc(CNC(=O)C(c2nc3cc(C)c(-c4ccc(N5CCNCC5)cc4)cc3s2)S(C)(=O)=O)o1` (stereo not drawn) [Example B84, N-((5-methyl-1,3,4-oxadiazol-2-yl)methyl)-2-(5-methyl-6-(4-(piperazin-1-yl)phenyl)-1,3-benzothiazol-2-yl)-2-(methylsulfonyl)acetamide], the results for the IC50 in assay [1] and in assay [2] were 350 nM and 34 nM, respectively.

With `CC(C)CS(=O)(=O)C(C(=O)NCCS(N)(=O)=O)c1nc2ccc(-c3cnn(CCN4CCOCC4)c3)cc2s1` (stereo not drawn) [Example B123, 2-(isobutylsulfonyl)-2-(6-{1-[2-(4-morpholinyl)eth-yl]-1H-pyrazol-4-yl}-1,3-benzothiazol-2-yl)-N-(2-sulfamoylethyl)a-cetamide], the values for the half-inhibitory concentration (IC50) in assay [1] and in assay [2] were 400 nM and 18 nM, respectively.

For `Cn1ccc(-c2ccc3nc(C(C(=O)NCCS(N)(=O)=O)S(=O)(=O)Cc4ccc(OC(F)(F)F)cc4)sc3c2)cc1=O` (stereo not drawn) [Example B368, 2-[6-(1-methyl-2-oxo-1,2-dihydropyridin-4-yl)-1,3-benzothiazol-2-yl]-N-(2-sulfamoylethyl)-2-{[4-(trifluoromethoxy)phen-yl]methanesulfonyl}a-cetamide], the half-inhibitory concentration (IC50) in assay [1] was found to be 1600 nM; in assay [2], 15.8 nM.

`COCCS(=O)(=O)NS(=O)(=O)c1cccc(CNC(=O)C(c2nc3cc(-c4ccccc4)ccc3s2)S(=O)(=O)CCOC)c1` (stereo not drawn) [Example B270, N-({3-[(2-methoxyethane-sulfonamido)sulfonyl]phen-yl}methyl)-2-(2-methoxyethanesulfonyl)-2-(5-phenyl-1,3-benzothiazol-2-yl)a-cetamide]: the IC50 in assay [1] was 212 nM; in assay [2] it was 205 nM.

The IC50 is the point on the concentration scale where inhibition reaches its midpoint. Read a high IC50 as lower potency.

The values are drawn from patent US8987314B2, “Amide, urea or sulfone amide linked benzothiazole inhibitors of endothelial lipase” (Bristol-Myers Squibb Company, priority 2012, dated 2015).
